Measured values reported in US8829007B2 (priority 2009, dated 2014).
Like-named read-outs stand apart in the source and are kept apart here.

Legend:
[1] = test system: influenza A virus (A/PR/8/34); experiment: microbe, parasite or virus in culture; format: cell-based; settings: Influenza A virus, PR/8, MDCK, read-out: IC50 (mean all)
[2] = test system: A/PR/8/34 influenza virus; experiment: microbe, parasite or virus in culture; format: cell-based; settings: Influenza A virus, PR/8, MDCK, read-out: EC50 (mean all)
[3] = MDCK cells infected with A/PR/8/34, cell protection (CPE)
[4] = MDCK cells infected with A/PR/8/34, bDNA viral RNA

| Compound | IC50 [1, 3] [µM] | EC50 [2, 4] [µM] | IC50 [1] [µM] | EC50 [2] [µM] |
| --- | --- | --- | --- | --- |
| O=C(CCl)N1CCC[C@H](CNc2nc(-c3c[nH]c4ncc(Cl)cc34)ncc2F)C1 [Compound 92, (R)-2-chloro-1-(3-((2-(5-chloro-1H-pyrrolo[2,3-b]pyridin-3-yl)-5-fluoropyrimidin-4-ylamino)methyl)piperidin-1-yl)ethanone] | < 5 | < 5 | – | – |
| CC(Cl)C(=O)N1CCC[C@H](CNc2nc(-c3c[nH]c4ncc(Cl)cc34)ncc2F)C1 (stereo partly drawn) [Compound 93, 2-chloro-1-((R)-3-((2-(5-chloro-1H-pyrrolo[2,3-b]pyridin-3-yl)-5-fluoropyrimidin-4-ylamino)methyl)piperidin-1-yl)propan-1-one] | < 5 | < 5 | – | – |
| O=C(COc1ccccc1)N1CCC[C@H](CNc2nc(-c3c[nH]c4ncc(Cl)cc34)ncc2F)C1 [Compound 94, (R)-1-(3-((2-(5-chloro-1H-pyrrolo[2,3-b]pyridin-3-yl)-5-fluoropyrimidin-4-ylamino)methyl)piperidin-1-yl)-2-phenoxyethanone] | < 5 | < 5 | – | – |
| O=C(C1CCCCC1)N1CCC[C@H](CNc2nc(-c3c[nH]c4ncc(Cl)cc34)ncc2F)C1 [Compound 95, (R)-(3-((2-(5-chloro-1H-pyrrolo[2,3-b]pyridin-3-yl)-5-fluoropyrimidin-4-ylamino)methyl)piperidin-1-yl)(cyclohexyl)methanone] | < 5 | < 5 | – | – |
| O=C(c1cccs1)N1CCC[C@H](CNc2nc(-c3c[nH]c4ncc(Cl)cc34)ncc2F)C1 [Compound 97, (R)-(3-((2-(5-chloro-1H-pyrrolo[2,3-b]pyridin-3-yl)-5-fluoropyrimidin-4-ylamino)methyl)piperidin-1-yl)(thiophen-2-yl)methanone] | < 5 | < 5 | – | – |
| O=C(Cc1ccc(F)cc1)N1CCC[C@H](CNc2nc(-c3c[nH]c4ncc(Cl)cc34)ncc2F)C1 [Compound 98, (R)-1-(3-((2-(5-chloro-1H-pyrrolo[2,3-b]pyridin-3-yl)-5-fluoropyrimidin-4-ylamino)methyl)piperidin-1-yl)-2-(4-fluorophenyl)ethanone] | < 5 | < 5 | – | – |
| O=C(C1CCCC1)N1CCC[C@H](CNc2nc(-c3c[nH]c4ncc(Cl)cc34)ncc2F)C1 [Compound 99, (R)-(3-((2-(5-chloro-1H-pyrrolo[2,3-b]pyridin-3-yl)-5-fluoropyrimidin-4-ylamino)methyl)piperidin-1-yl)(cyclopentyl)methanone] | < 5 | < 5 | – | – |
| O=C(CC1CCCC1)N1CCC[C@H](CNc2nc(-c3c[nH]c4ncc(Cl)cc34)ncc2F)C1 [Compound 100, (R)-1-(3-((2-(5-chloro-1H-pyrrolo[2,3-b]pyridin-3-yl)-5-fluoropyrimidin-4-ylamino)methyl)piperidin-1-yl)-2-cyclopentylethanone] | < 5 | < 5 | – | – |
| O=C(c1cnccn1)N1CCC[C@H](CNc2nc(-c3c[nH]c4ncc(Cl)cc34)ncc2F)C1 [Compound 101, (R)-(3-((2-(5-chloro-1H-pyrrolo[2,3-b]pyridin-3-yl)-5-fluoropyrimidin-4-ylamino)methyl)piperidin-1-yl)(pyrazin-2-yl)methanone] | < 5 | < 5 | – | – |
| O=C(c1ccco1)N1CCC[C@H](CNc2nc(-c3c[nH]c4ncc(Cl)cc34)ncc2F)C1 [Compound 102, (R)-(3-((2-(5-chloro-1H-pyrrolo[2,3-b]pyridin-3-yl)-5-fluoropyrimidin-4-ylamino)methyl)piperidin-1-yl)(furan-2-yl)methanone] | < 5 | < 5 | – | – |
| O=C(Cc1cccs1)N1CCC[C@H](CNc2nc(-c3c[nH]c4ncc(Cl)cc34)ncc2F)C1 [Compound 104, (R)-1-(3-((2-(5-chloro-1H-pyrrolo[2,3-b]pyridin-3-yl)-5-fluoropyrimidin-4-ylamino)methyl)piperidin-1-yl)-2-(thiophen-2-yl)ethanone] | < 5 | < 5 | – | – |
| CC(C)(C)C(=O)N1CCC[C@H](CNc2nc(-c3c[nH]c4ncc(Cl)cc34)ncc2F)C1 [Compound 105, (R)-1-(3-((2-(5-chloro-1H-pyrrolo[2,3-b]pyridin-3-yl)-5-fluoropyrimidin-4-ylamino)methyl)piperidin-1-yl)-2,2-dimethylpropan-1-one] | < 5 | < 5 | – | – |
| O=C(COCc1ccccc1)N1CCC[C@H](CNc2nc(-c3c[nH]c4ncc(Cl)cc34)ncc2F)C1 [Compound 106, (R)-2-(benzyloxy)-1-(3-((2-(5-chloro-1H-pyrrolo[2,3-b]pyridin-3-yl)-5-fluoropyrimidin-4-ylamino)methyl)piperidin-1-yl)ethanone] | < 5 | < 5 | – | – |
| O=C(c1cc2ccccc2s1)N1CCC[C@H](CNc2nc(-c3c[nH]c4ncc(Cl)cc34)ncc2F)C1 [Compound 107, (R)-benzo[b]thiophen-2-yl(3-((2-(5-chloro-1H-pyrrolo[2,3-b]pyridin-3-yl)-5-fluoropyrimidin-4-ylamino)methyl)piperidin-1-yl)methanone] | < 5 | < 5 | – | – |
| COc1ccc(C(=O)N2CCC[C@H](CNc3nc(-c4c[nH]c5ncc(Cl)cc45)ncc3F)C2)cc1OC [Compound 109, (R)-(3-((2-(5-chloro-1H-pyrrolo[2,3-b]pyridin-3-yl)-5-fluoropyrimidin-4-ylamino)methyl)piperidin-1-yl)(3,4-dimethoxyphenyl)methanone] | < 5 | < 5 | – | – |
| CC(=O)OCC(=O)N1CCC[C@H](CNc2nc(-c3c[nH]c4ncc(Cl)cc34)ncc2F)C1 [Compound 110, (R)-2-(3-((2-(5-chloro-1H-pyrrolo[2,3-b]pyridin-3-yl)-5-fluoropyrimidin-4-ylamino)methyl)piperidin-1-yl)-2-oxoethyl ethanoate] | < 5 | < 5 | – | – |
| CC(=O)N1CCC[C@H](CNc2nc(-c3c[nH]c4ncc(Cl)cc34)ncc2F)C1 [Compound 111, (R)-1-(3-((2-(5-chloro-1H-pyrrolo[2,3-b]pyridin-3-yl)-5-fluoropyrimidin-4-ylamino)methyl)piperidin-1-yl)ethanone] | < 5 | < 5 | – | – |
| CNc1ccccc1C(=O)N1CCC[C@H](CNc2nc(-c3c[nH]c4ncc(Cl)cc34)ncc2F)C1 [Compound 112, (R)-(3-((2-(5-chloro-1H-pyrrolo[2,3-b]pyridin-3-yl)-5-fluoropyrimidin-4-ylamino)methyl)piperidin-1-yl)(2-(methylamino)phenyl)methanone] | < 5 | < 5 | – | – |
| COc1ccccc1C(=O)N1CCC[C@H](CNc2nc(-c3c[nH]c4ncc(Cl)cc34)ncc2F)C1 [Compound 113, (R)-(3-((2-(5-chloro-1H-pyrrolo[2,3-b]pyridin-3-yl)-5-fluoropyrimidin-4-ylamino)methyl)piperidin-1-yl)(2-methoxyphenyl)methanone] | < 5 | < 5 | – | – |
| C=CCOC(=O)N1CCC[C@H](CNc2nc(-c3c[nH]c4ncc(Cl)cc34)ncc2F)C1 [Compound 119, (R)-allyl 3-((2-(5-chloro-1H-pyrrolo[2,3-b]pyridin-3-yl)-5-fluoropyrimidin-4-ylamino)methyl)piperidine-1-carboxylate] | < 5 | < 5 | – | – |
| Cc1cc(NC(=O)N2CCC[C@H](CNc3nc(-c4c[nH]c5ncc(Cl)cc45)ncc3F)C2)c(C(F)(F)F)o1 [Compound 120, (R)-3-((2-(5-chloro-1H-pyrrolo[2,3-b]pyridin-3-yl)-5-fluoropyrimidin-4-ylamino)methyl)-N-(5-methyl-2-(trifluoromethyl)furan-3-yl)piperidine-1-carboxamide] | < 5 | < 5 | – | – |
| C#CCOC(=O)N1CCC[C@H](CNc2nc(-c3c[nH]c4ncc(Cl)cc34)ncc2F)C1 [Compound 122, (R)-prop-2-ynyl 3-((2-(5-chloro-1H-pyrrolo[2,3-b]pyridin-3-yl)-5-fluoropyrimidin-4-ylamino)methyl)piperidine-1-carboxylate] | < 5 | < 5 | – | – |
| Fc1cnc(-c2c[nH]c3ncc(Cl)cc23)nc1NC[C@H]1CCCN(c2ncccn2)C1 [Compound 124, (R)-2-(5-chloro-1H-pyrrolo[2,3-b]pyridin-3-yl)-5-fluoro-N-((1-(pyrimidin-2-yl)piperidin-3-yl)methyl)pyrimidin-4-amine] | < 5 | < 5 | – | – |
| O=C(OCCF)N1CCC[C@H](CNc2nc(-c3c[nH]c4ncc(Cl)cc34)ncc2F)C1 [Compound 126, (R)-2-fluoroethyl 3-((2-(5-chloro-1H-pyrrolo[2,3-b]pyridin-3-yl)-5-fluoropyrimidin-4-ylamino)methyl)piperidine-1-carboxylate] | < 5 | < 5 | – | – |
| CC#CCOC(=O)N1CCC[C@H](CNc2nc(-c3c[nH]c4ncc(Cl)cc34)ncc2F)C1 [Compound 127, (R)-but-2-ynyl 3-((2-(5-chloro-1H-pyrrolo[2,3-b]pyridin-3-yl)-5-fluoropyrimidin-4-ylamino)methyl)piperidine-1-carboxylate] | – | – | < 5 | < 5 |
| CC(C)(C)NC(=O)N1CCC[C@H](CNc2nc(-c3c[nH]c4ncc(Cl)cc34)ncc2F)C1 [Compound 128, (R)—N-tert-butyl-3-((2-(5-chloro-1H-pyrrolo[2,3-b]pyridin-3-yl)-5-fluoropyrimidin-4-ylamino)methyl)piperidine-1-carboxamide] | < 5 | < 5 | – | – |
| O=C(Nc1cccs1)N1CCC[C@H](CNc2nc(-c3c[nH]c4ncc(Cl)cc34)ncc2F)C1 [Compound 129, (R)-3-((2-(5-chloro-1H-pyrrolo[2,3-b]pyridin-3-yl)-5-fluoropyrimidin-4-ylamino)methyl)-N-(thiophen-2-yl)piperidine-1-carboxamide] | < 5 | < 5 | – | – |
| COC(=O)NC(=O)N1CCC[C@H](CNc2nc(-c3c[nH]c4ncc(Cl)cc34)ncc2F)C1 [Compound 131, (R)-methyl 3-((2-(5-chloro-1H-pyrrolo[2,3-b]pyridin-3-yl)-5-fluoropyrimidin-4-ylamino)methyl)piperidine-1-carbonylcarbamate] | < 5 | < 5 | – | – |
